Measured values from patent publication US10787425B2, “Thiazolidinedione derivative and use thereof” (INDUSTRY-ACADEMIC COOPERATION FOUNDATION CHOSUN UNIVERSITY, priority 2016, dated 2020).

Experiments:
15-PGDH = 15-PGDH (Homo sapiens (Human), UniProt P15428); assay: 15-PGDH inhibitory activity (NADH at 340 nm); type: biochemical; settings: concentration inhibiting 50% of 15-PGDH activity; purified 15-PGDH, 21 μM PGE2, 0.25 mM NAD+
Experimental: The 15-PGDH cDNA plasmid containing the BamHI of the pGEX-2T expression vector and EcoRI restriction enzyme sites was transfected into E. coli BL-21 LysS by using conventional methods used in the art. Then, the transfected cells were cultured in an LB medium (500 ml) containing 50 μg/ml of ampicillin at a temperature of 37° C. and at a rate of 220 rpm until the OD600 reached 0.6. Then, isopropyl beta-D-thiogalactoxide (1 mM) was added and the cells were further cultured at the temperature of 25° C. for 12 hours. The cells were then centrifuged at the gravity of 4,000 g for 30 minutes at a temperature of 4° C. to collect a cell pellet. The cell pellet was dissolved in 20 ml of cell lysis buffer (containing 1×PBS buffer (pH 7.4): 1 mM EDTA and 0.1 mM DTT) and sonicated at a temperature of 4° C. for 14×10 s. The digested cells were centrifuged at the gravity of 4,000 g for 20 minutes at a temperature of 4° C. The supernatant was then slowly loaded onto a glutathione-sepharose 4B column equilibrated at a temperature of 4° C. with cell lysis buffer [containing 1×PBS buffer (pH 7.4), 1 mM EDTA, and 0.1 mM DTT]. Washing was performed thereon by using a dissolution buffer until the OD280 reached 0.005 or less. Then, 15-PGDH was eluted from the glutathione-sepharose 4B column at room temperature for 5 minutes by using an elution buffer [containing 50 mM Tris-HCl (pH 8.0), 10 mM reduced glutathione, 1 mM EDTA, and 0.1 mM DTT). The concentration of the purified enzyme was measured, and the purification level thereof was confirmed by SDS-PAGE.
That is, the cells were treated with a solution including 50 mM Tris-HCl (pH 7.5), 0.1 mM DTT, 0.25 mM (NAD+), 10 μg of purified 15-PGDH enzyme, 21 μM PGE2. and various concentrations (0.0001 μM to 64 μM) of the derivative compound according to the present disclosure. In this case, the total volume of the solution was 2 ml. Then, the absorbance of the reaction mixture was recorded at the wavelength of 340 nm. To measure the activity of the derivative compounds according to the present disclosure, which is an inhibitor of 15-PGDH, the average value of NADH absorbance at 340 nm at various concentrations was obtained from a standard curve.

A549 cells = assay: Measurement of PGE2 concentration in A549 cell medium (ELISA); type: cell-based, human; settings: for Increment %: PGE2 concentration versus PBS control, 5 μM, 12 hours; for PGE2 concentration: inhibitor 5 μM, medium collected after 12 hours, ELISA
Experimental: A549 cells were subcultured in RPMI 1640 medium (containing+8% fetal bovine serum (FBS) and antibiotic-antimycotic (AA)) for one week, and then, inoculated in a 6-well plate at 2.5×10^5 cells/mL (5×10^5 cells/well) and cultured for 24 hours in a 5% CO2 incubator at a temperature of 37° C. A549 cells are adenocarcinomic human alveolar basal epithelial cells which are derived from lung tissues. When cells were grown to about 80% confluence, a 15-PGDH inhibitor in 1×PBS buffer was injected at a concentration of 5 μM. To compare the results, the same amount of 1×PBS buffer was injected into a negative control, and, the treated cells were cultured in 5% CO2 incubator. After 12 hours, the medium was collected and the collected medium was assayed to measure PGE2 concentration by using an ELISA Kit (Abcam) according to the manufacturer's instructions. The concentration may be expressed as an exact value by plotting the calibration curve by using the absorbance value after diluting the standard in the medium by concentration.

15-PGDH, sequence (P15428 whole entry): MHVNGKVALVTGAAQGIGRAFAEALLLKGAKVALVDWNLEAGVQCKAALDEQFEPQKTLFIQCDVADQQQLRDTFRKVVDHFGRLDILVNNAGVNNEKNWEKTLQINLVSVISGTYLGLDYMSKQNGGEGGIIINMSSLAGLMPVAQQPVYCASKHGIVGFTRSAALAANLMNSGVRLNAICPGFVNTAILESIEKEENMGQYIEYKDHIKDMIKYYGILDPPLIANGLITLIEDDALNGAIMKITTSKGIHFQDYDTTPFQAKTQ

SMILES	IC50 (15-PGDH)	Increment % (A549 cells)	PGE2 concentration (A549 cells)
O=C1NC(=O)/C(=C/c2ccc(OC(=O)C3CCC3)c(Cl)c2)S1 [Compound 2, (Z)-2-chloro-4-((2,4-dioxothiazolidin-5-ylidene)methyl)phenyl cyclobutanecarboxylate]	782 nM	9.96%	301.0364 pg/mL
O=C1NC(=O)/C(=C/c2ccc(OC(=O)C3CCCC3)c(Cl)c2)S1 [Compound 3, (Z)-2-chloro-4-((2,4-dioxothiazolidin-5-ylidene)methyl)phenyl cyclopentanecarboxylate]	196 nM	−30.1%	191.3645 pg/mL
O=C(CC1CCCC1)Oc1ccc(/C=C2\SC(=O)NC2=O)cc1Cl [Compound 4, (Z)-2-chloro-4-((2,4-dioxothiazolidin-5-ylidene)methyl)phenyl 2-cyclopentylacetate]	78.3 nM	103.32%	556.6271 pg/mL
O=C(CCC1CCCC1)Oc1ccc(/C=C2\SC(=O)NC2=O)cc1Cl [Compound 5, (Z)-2-chloro-4-((2,4-dioxothiazolidin-5-ylidene)methyl)phenyl 3-cyclopentylpropanoate]	30.5 nM	83.07%	501.1889 pg/mL
O=C1NC(=O)/C(=C/c2ccc(OC(=O)C3CCCCC3)c(Cl)c2)S1 [Compound 6, (Z)-2-chloro-4-((2,4-dioxothiazolidin-5-ylidene)methyl)phenyl cyclohexanecarboxylate]	137 nM	27.71%	349.6304 pg/mL
O=C(CC1CCCCC1)Oc1ccc(/C=C2\SC(=O)NC2=O)cc1Cl [Compound 7, (Z)-2-chloro-4-((2,4-dioxothiazolidin-5-ylidene)methyl)phenyl 2-cyclohexylacetate]	23.8 nM	20.36%	329.5084 pg/mL
O=C(CCC1CCCCC1)Oc1ccc(/C=C2\SC(=O)NC2=O)cc1Cl [Compound 8, (Z)-2-chloro-4-((2,4-dioxothiazolidin-5-ylidene)methyl)phenyl 3-cyclohexylpropanoate]	–	221.32%	879.6746 pg/mL
O=C(CCCC1CCCCC1)Oc1ccc(/C=C2\SC(=O)NC2=O)cc1Cl [Compound 9, (Z)-2-chloro-4-((2,4-dioxothiazolidin-5-ylidene)methyl)phenyl 4-cyclohexylbutanoate]	20.2 nM	189.34%	792.1232 pg/mL
O=C(CCCCC1CCCCC1)Oc1ccc(/C=C2\SC(=O)NC2=O)cc1Cl [Compound 10, (Z)-2-chloro-4-((2,4-dioxothiazolidin-5-ylidene)methyl)phenyl 5-cyclohexylpentanoate]	31.7 nM	89.99%	520.1337 pg/mL
O=C(O)c1ccccc1.O=C1NC(=O)/C(=C/c2ccc(OC(=O)c3ccccc3)c(Cl)c2)S1 [Compound 11, (Z)-2-chloro-4-((2,4-dioxothiazolidin-5-ylidene)methyl)phenyl benzoate]	31.9 nM	−78.32%	25.95 pg/mL
O=C(Cc1ccccc1)Oc1ccc(/C=C2\SC(=O)NC2=O)cc1Cl [Compound 12, (Z)-2-chloro-4-((2,4-dioxothiazolidin-5-ylidene)methyl)phenyl 2-phenylacetate]	63.5 nM	−34.89%	77.92 pg/mL
O=C(CCc1ccccc1)Oc1ccc(/C=C2\SC(=O)NC2=O)cc1Cl [Compound 13, (Z)-2-chloro-4-((2,4-dioxothiazolidin-5-ylidene)methyl)phenyl 3-phenylpropanoate]	41.8 nM	16.39%	139.2902 pg/mL
O=C(CCCCc1ccccc1)Oc1ccc(/C=C2\SC(=O)NC2=O)cc1Cl [Compound 15, (Z)-2-chloro-4-((2,4-dioxothiazolidin-5-ylidene)methyl)phenyl 5-phenylpentanoate]	44 nM	84.11%	220.3344 pg/mL
O=C1NC(=O)/C(=C/c2ccc(OC(=O)C3CC3)c(Br)c2)S1 [Compound 16, (Z)-2-bromo-4-((2,4-dioxothiazolidin-5-ylidene)methyl)phenyl cyclopropanecarboxylate]	220 nM	12.12%	283.7043 pg/mL
O=C(CCC1CCCCC1)Oc1ccc(/C=C2\SC(=O)NC2=O)cc1Br [Compound 23, (Z)-2-bromo-4-((2,4-dioxothiazolidin-5-ylidene)methyl)phenyl 3-cyclohexylpropanoate]	–	311.02%	1040.03 pg/mL
COc1cc(/C=C2\SC(=O)NC2=O)ccc1OC(=O)CCC1CCCCC1 [Compound 38, (Z)-4-((2,4-dioxothiazolidin-5-ylidene)methyl)-2-methoxyphenyl 3-cyclohexylpropanoate]	–	323.99%	859.6813 pg/mL
CCOc1cc(/C=C2\SC(=O)NC2=O)ccc1OC(=O)CCC1CCCCC1 [Compound 53, (Z)-4-((2,4-dioxothiazolidin-5-ylidene)methyl)-2-ethoxyphenyl 3-cyclohexylpropanoate]	–	189.34%	792.73 pg/mL
O=C1NC(=O)/C(=C/c2ccc(OC(=O)C3CCC3)cc2)S1 [Compound 62, (Z)-4-((2,4-dioxothiazolidin-5-ylidene)methyl)phenyl cyclobutanecartboxylate]	–	12.13%	178.4361 pg/mL
O=C(CCC1CCCCC1)Oc1ccc(/C=C2\SC(=O)NC2=O)cc1 [Compound 68, (Z)-4-((2,4-dioxothiazolidin-5-ylidene)methyl)phenyl 3-cyclohexylpropanoate]	–	97.45%	255.0535 pg/mL
O=C1NC(=O)/C(=C/c2ccc(OC(=O)c3ccccc3)cc2)S1 [Compound 71, (Z)-4-((2,4-dioxothiazolidin-5-ylidene)methyl)phenyl benzoate]	–	−58.38%	53.76 pg/mL
O=C1NC(=O)/C(=C/c2cccc(OC(=O)C3CCCCC3)c2Cl)S1 [Compound 81, (Z)-2-chloro-3-((2,4-dioxothiazolidin-5-ylidene)methyl)phenyl cyclohexanecarboxylate]	–	10.32%	232.1268 pg/mL
O=C(CCC1CCCCC1)Oc1cccc(/C=C2\SC(=O)NC2=O)c1Cl [Compound 83, (Z)-2-chloro-3-((2,4-dioxothiazolidin-5-ylidene)methyl)phenyl 3-cyclohexylpropanoate]	–	201.32%	634.0143 pg/mL
O=C(CCC1CCCC1)Oc1ccc(/C=C2\SC(=O)NC2=O)c(Cl)c1 [Compound 95, (Z)-3-chloro-4-((2,4-dioxothiazolidin-5-ylidene)methyl)phenyl 3-cyclopentylpropanoate]	–	113.4574%	238.3412 pg/mL
O=C(CCC1CCCCC1)Oc1ccc(/C=C2\SC(=O)NC2=O)c(Cl)c1 [Compound 98, (Z)-3-chloro-4-((2,4-dioxothiazolidin-5-ylidene)methyl)phenyl 3-cyclohexylpropanoate]	–	138.7487%	266.5808 pg/mL
O=C(CCCC1CCCCC1)Oc1ccc(/C=C2\SC(=O)NC2=O)c(Cl)c1 [Compound 99, (Z)-3-chloro-4-((2,4-dioxothiazolidin-5-ylidene)methyl)phenyl 4-cyclohexylbutanoate]	–	66.7717%	186.2131 pg/mL
